Reference: paper PMC5895803, “Inhibition of cancer stem cell like cells by a synthetic retinoid” (Nature Communications, 2018)
pIC50: −log10 of the molar value. “And” between values parts separate entries of the source, which are not always exact repeats. Identical values can stand only once.

How the values were obtained:
B16-F1 TRCs [1] = assay: Colony growth of B16-F1 TRCs in 90-Pa 3D soft fibrin gels; format: cell-based, murine; conditions: 10 µM added day 3, washed out day 4, 3 days after washout
[2] = tested on: B16-F1 TRCs lung metastases; assay: Lung metastasis of B16-F1 TRCs in immune-competent mice; format: in vivo, C57BL/6 mice; conditions: for Metastases in H&E-stained organ sections: 0.022 mg kg-1; for Mice with lung metastases: 8 mice per group, day 30
Source text: Four- to six-week-old female and male C57BL/6 mice were used in mice experiment. Mice were randomized into different groups. In metastasis experiment, B16-F1 cell spheroids were selected from 3D 90-Pa fibrin gels and pipetted to single cells. These TRCs were harvested and the cell number was counted under microscopy. The cells were then suspended in PBS with appropriate cell density. Thirty thousand TRCs were intravenously injected into the tail vein of each wild-type C57BL/6 mouse. Five days later, inoculated mice were intravenous implanted with 0.022 mg kg^−1 WYC-209, 0.22 mg kg^−1 WYC-209, or 0.1% DMSO every two days. The mice were euthanized and examined for lung tumor formation at day 30. In treated TRCs injected in vivo experiments, B16-F1 cells were seeded into 3D 90-Pa fibrin gels and treated with 10 µM WYC-209 or 0.1% DMSO on day 3, then isolated treated TRCs colonies on day 5 and pipetted into single cell. 30,000 of TRCs were intravenously injected into the tail vein of each wild-type C57BL/6 mouse. No blinding was performed in the mice experiments.
Lung, liver, spleen, bone, stomach, and brain of C57BL/6 mice were fixed by 4% paraformaldehyde then were embedded in paraffin and cut to ~4 µm thick sections by Thermo FINESSE 325. Organ sections were stained by H&E and slides were evaluated for tumor formation by a veterinary pathologist blinded to sample identity.

B16-F1 TRCs [3] = assay: Cell cycle analysis (BrdU flow cytometry), S phase of TRCs; format: cell-based, murine; conditions: 10 μM, 24 hours
Method: For Annexin-V and PI staining to quantify cell apoptosis, treated TRCs were isolated from 3D fibrin gel by using 5 mg mL^−1 Dispase II (Sigma), cells were labeled with FITC-conjugated Annexin-V and PI according to the manufacturer’s instruction (Biolegend). Data were acquired on a BD Cantoll (BD biosciences) and analyzed with FlowJo software. For BrdU staining to quantify cell proliferation, cells were labeled with FITC-conjugated anti-BrdU antibody according to the manufacturer’s instruction (FITC BrdU Flow Kit, BD Biosciences) and then data were acquired on an Accuri C6 (BD Biosciences) and analyzed with BD Accuri C6 software.
Supplementary Figure 13. WYC-209 blocks S phase of TRCs. Different cancer cell lines cultured in 3D soft fibrin gel on day 0, then treated with 0.1, 1, or 10 μM WYC-209, WYC-209A, WYC-209B on day 4, isolated cells after 24 hours and labeled with FITC-conjugated anti-BrdU antibody for cell cycle analysis, 10 μM ATRA and Tazarotne as positive controls. (a) Representative images of flow cytometry in different conditions. (b) Quantification of S phase ratio in different conditions. Mean ± s.e.m.; n=3 independent experiments; * P<0.05; ** P<0.01; *** P<0.001 (Student’s t-test).
(§1) (1 picture or pasted object on this page, not shown here)

[4] = tested on: cleaved (active) caspase-3 and PARP; assay: Western blotting of cleaved caspase-3 and PARP; format: cell-based, murine; conditions: 10 μM, 24 h
Source text: To quantify the expression levels of RARα, RARβ, RARγ, caspase-3, cleaved caspase-3, and cleaved PARP, cells were lysed with RIPA lysis buffer. […] Primary antibodies were detected with mouse anti-Rabbit IgG-HRP (1:1000, Santa Cruz, sc-2357), donkey anti-goat IgG-HRP (1:1000, Santa Cruze, sc-2020), or anti-Mouse IgG-HRP (1:1000, Santa Cruz, sc-2005).
Supplementary Figure 37. WYC-209 induces cleaved caspase-3 and PARP expressions.
(a) Representative images of cleaved PARP and cleaved caspase-3 protein expressions in control B16-F1 cells cultured on 2D rigid dishes and treated 0.1% DMSO, 1 or 10 µM WYC-209, WYC-209A or WYC-209B for 24 h. (b) Representative images of cleaved PARP and cleaved caspase-3 protein expression of control B16-F1 cells seeded in 3D soft fibrin gels for […]
hours. (c, d) Quantification of expression levels of cleaved PARP and cleaved caspase-3 in (a). (e, f) Quantification of expression levels of cleaved PARP and cleaved caspase-3 in (b).
All values are normalized by GAPDH. Mean ± s.e.m.; 3 separate experiments; ns, not […]
as §1

[5] = tested on: unselected human cancer cells; assay: Unselected human cancer cells on 2D rigid dishes; format: cell-based; conditions: 10 μM, 48 hours
Method: Supplementary Figure 20. WYC-209 detaches adherent human cancer cells on rigid plastic. (a-e): human melanoma MDA-MB-435s (a), human breast cancer MCF-7 (b), human ovarian cancer A2780 (c), human malignant melanoma A375 (d), and human lung cancer A549 (e) were cultured on rigid plastics and treated with 0.1, 1, or 10 μM WYC-209, WYC-209A, or WYC-209B and cell numbers were measured for 48 hours. Cell nuclei were stained with DAPI. None: medium only; DMSO: medium containing 0.1% DMSO. Cell numbers per view field were quantified. Mean ± s.e.m.; n= 5 samples; 3 separate experiments; *P<0.05; ** P<0.01; *** P<0.001 […]
as §1

HaCaT cells = assay: Non-cancerous human epidermal HaCaT cells, 2D rigid dishes and 3D soft fibrin gels; format: cell-based; conditions: for HaCaT cell numbers on 2D rigid plastic / HaCaT colony growth in 3D soft fibrin gel: 10 μM; for HaCaT colony growth in 3D soft fibrin gel: day 7; for Inhibitory effects towards non-cancerous HaCaT cells: 2D rigid dishes and 3D soft fibrin gels
Method: Supplementary Figure 21. WYC-209 has less inhibitory effects on non-cancerous human epidermal cell line HaCaT. (a) Non-cancerous human epidermal HaCaT cells were seeded into 3D soft fibrin gel and treated with 0.1, 1, or 10 μM of WYC-209, WYC-209A, or WYC-209B on day 0, and colony sizes were quantified on day 7.
Bright field images were representative images of colonies on day 7. Scale bars, 50 μm. (b) Quantitation of cell numbers per view field of HaCaT cells plated on 2D rigid plastic. Cell nucleus were stained with DAPI. None: medium only; DMSO: medium containing 0.1% DMSO. Mean ± s.e.m.; n= 5 samples; 3 separate experiments; * P<0.05, *** P<0.001 (Student’s t-test). Note that even at 10 μM concentration no […]
compounds have less inhibitory effects on these non-cancerous human epidermal […]
as §1

B16-F1 TRCs [6] = assay: Colony growth of B16-F1 TRCs in 90-Pa 3D soft fibrin gels; format: cell-based, murine; conditions: for IC50 lower / potency higher than that of Tazarotene: B16-F1 TRC growth; for inhibition at 10 µM / pIC50: Mus musculus; for inhibition at 10 µM: B16-F1, 10 μM, treated on day 0, day 5; for pIC50: B16-F1 in 90-Pa fibrin gels, treated on day 0, colony size on day 5; for Growth after re-plating into new soft fibrin gels without compound: washed out
[7] = 0.022 mg kg−1 i.v. every two days from day 5 after 30,000 TRCs i.v.
[8] = 0.22 mg kg−1 i.v. every two days from day 5 after 30,000 TRCs i.v.
[9] = pretreated with 10 µM, at least 5 days

HaCaT cell numbers on 2D rigid plastic (HaCaT cells) | HaCaT colony growth in 3D soft fibrin gel (HaCaT cells) | Inhibitory effects towards non-cancerous HaCaT cells (HaCaT cells) | IC50 lower / potency higher than that of Tazarotene (B16-F1 TRCs [6]) | pIC50 (B16-F1 TRCs [6]) | SMILES | TRC growth after compound washout (B16-F1 TRCs [1]) | Metastases in H&E-stained organ sections [2] | Mice with lung metastases [2, 7] | Mice with lung metastases [2, 8] | Decrease of S phase of TRCs (B16-F1 TRCs [3]) | Cleaved (active) caspase-3 and PARP [4] | Growth of unselected human cancer cells on 2D rigid dishes [5] | inhibition at 10 µM (B16-F1 TRCs [6]) [%] | Growth after re-plating into new soft fibrin gels without compound (B16-F1 TRCs [6]; [9]) | Growth after re-plating into new soft fibrin gels without compound (B16-F1 TRCs [6]; pretreated with 0.1 or 1 μM) | Average lung weight versus DMSO group ([2]; 0.22 mg kg−1) | Lung metastases of melanoma TRCs abrogated ([2]; 0.22 mg kg−1) [%] | Lung metastases in untreated mice injected with pretreated TRCs ([2]; TRCs pretreated with 10 µM in fibrin gels day 3-5, 30,000 TRCs i.v., 8 mice) | Duration of effect after washout (long-lasting) (B16-F1 TRCs [6]; melanoma TRCs re-plated in fresh medium without compound) [days]
no reduction in cell numbers | still some colony growth | much less inhibitory effects | about 10 fold | 6.82 | CCOC(=O)c1cnc(C#Cc2ccc3c(c2)C(C)(C)CC[S@+]3[O-])nc1 [WYC-209A] | failed to resume growing | exhibited metastases in the lungs but not in other organs | three out of eight | one out of eight | completely abolished S phase | increase | completely blocked cell growth | 100 | none of the cells grew at all | some tumor cell growth | – | – | – | –
no reduction in cell numbers | still some colony growth | much less inhibitory effects | about 10 fold | 6.66 | CCOC(=O)c1cnc(C#Cc2ccc3c(c2)C(C)(C)CC[S@@+]3[O-])nc1 [WYC-209B] | failed to resume growing | exhibited metastases in the lungs but not in other organs | three out of eight | one out of eight | completely abolished S phase | increase | completely blocked cell growth | 100 | none of the cells grew at all | some tumor cell growth | – | – | – | –

SMILES | HaCaT cell numbers on 2D rigid plastic (HaCaT cells) | HaCaT colony growth in 3D soft fibrin gel (HaCaT cells) | Inhibitory effects towards non-cancerous HaCaT cells (HaCaT cells) | IC50 lower / potency higher than that of Tazarotene (B16-F1 TRCs [6]) | pIC50 (B16-F1 TRCs [6]) | TRC growth after compound washout (B16-F1 TRCs [1]) | Metastases in H&E-stained organ sections [2] | Mice with lung metastases [2, 7] | Mice with lung metastases [2, 8] | Decrease of S phase of TRCs (B16-F1 TRCs [3]) | Cleaved (active) caspase-3 and PARP [4] | Growth of unselected human cancer cells on 2D rigid dishes [5] | inhibition at 10 µM (B16-F1 TRCs [6]) [%] | Growth after re-plating into new soft fibrin gels without compound (B16-F1 TRCs [6]; [9]) | Growth after re-plating into new soft fibrin gels without compound (B16-F1 TRCs [6]; pretreated with 0.1 or 1 μM) | Average lung weight versus DMSO group ([2]; 0.22 mg kg−1) | Lung metastases of melanoma TRCs abrogated ([2]; 0.22 mg kg−1) [%] | Lung metastases in untreated mice injected with pretreated TRCs ([2]; TRCs pretreated with 10 µM in fibrin gels day 3-5, 30,000 TRCs i.v., 8 mice) | Duration of effect after washout (long-lasting) (B16-F1 TRCs [6]; melanoma TRCs re-plated in fresh medium without compound) [days]
CCOC(=O)c1cnc(C#Cc2ccc3c(c2)C(C)(C)CC[S+]3[O-])nc1 (stereo not drawn) [WYC-209] | no reduction in cell numbers | still some colony growth | much less inhibitory effects | about 10 fold | 6.72 | failed to resume growing | – | four out of eight and 4/8 | one out of eight and 1/8 | completely abolished S phase | increase | completely blocked cell growth | 100 | none of the cells grew at all | some tumor cell growth | less | 87.5 | no lung metastases | > 5
